Results as given in paper PMC4965013, “Open Source Drug Discovery with the Malaria Box Compound Collection for Neglected Diseases and Beyond” (PLoS Pathogens, 2016).
Like-named read-outs stand apart in the source and are kept apart here.

Legend:
[1] = system: P. falciparum; experiment: EC50 listed in S2 Table Metabolomics (used to set the concentration tested); format: cell-based; details: Plasmodium falciparum; EC50 used for Factor_XEC50 in metabolomics; read-out: EC50_nM
[2] = system: Naegleria fowleri trophozoites; experiment: Naegleria fowleri CellTiter-Glo; format: cell-based; details: Naegleria fowleri
From the text: Columns CY-CZ: Kyle group (data presented first in this paper). Naegleria fowleri trophozoite growth inhibition. Methods: The CellTiter-Glo (CTG) 2.0 luminescent assay is a quantitative assay that assesses the presence of cellular ATP in lysed cells, displaying an output in Relative Light Units (RLU’s). This was previously standardised, for the growth and development of Naegleria fowleri trophozoites in-vitro to assess drug susceptibility on this parasite. […] These included two drug-like molecules MMV665807 (St. Jude’s Children’s Hospital) and MMV665979 (The Genomics Institute of the Novartis Research Foundation - GNF) and two Probe-like molecules, MMV006203 (GNF) & MMV006172 (GNF; GlaxoSmithKline - GSK). […] However, these Malaria Box compounds were all toxic to zebrafish and mammalian cells.

[3] = system: P. falciparum NF54 late-stage gametocytes; details: ref [61]; cited from earlier work
[4] = target: PfPMT (Plasmodium falciparum, UniProt Q8IDQ9); experiment: PfPMT gene replacement yeast growth; details: 100µM
[5] = system: P. falciparum 3D7; experiment: [3H]-hypoxanthine growth inhibition, modified HCO3- or O2; format: cell-based; details: for IC50: Plasmodium falciparum
[6] = system: P. falciparum 3D7 trophozoites; experiment: Metabolomic fingerprint profiling LC-MS; format: cell-based, Plasmodium falciparum; parameters: UDP-D-glucose / ADP-D-glucose: unit not given here; details: for Acetyllysine / N-acetyl-L-ornithine / N-carbamoyl-L-aspartate / NADPH / dAMP / dCMP / dTDP / dTMP / dTTP / dihydroorotate / orotate / DLH / DLS/SDL/SID / PD / PEE / PVNF / 3-phosphoglycerate / ADP-D-glucose / ATP / CDP / D-sedoheptulose-1/7-phosphate / FAD / GMP / NAD+ / NADP+ / Octoluse Bisphosphate / Pyroglutamic acid / UDP-D-glucose / UDP-D-glucuronate / UDP-N-acetyl-glucosamine / UDP / UMP / UTP / a-ketoglutarate / citrate/isocitrate / cytidine / dATP / dGMP/AMP / fumarate / glucose-1/6-phosphate / glycerate / guanine / guanosine / hypoxanthine / indole / inosine / nicotinate / ornithine / phosphoenolpyruvate / pyruvate / ribose-phosphate / sarcosine/alanine / sn-glycerol-3-phosphate / succinate/methylmalonic acid / uridine / xanthosine: S2 Table Metabolomics; for Acetyllysine: metabolite Acetyllysine; for N-acetyl-L-ornithine: metabolite N-acetyl-L-ornithine; for N-carbamoyl-L-aspartate: metabolite N-carbamoyl-L-aspartate; for NADPH: metabolite NADPH; for dAMP: metabolite dAMP; for dCMP: metabolite dCMP; for dTDP: metabolite dTDP; for dTMP: metabolite dTMP; for dTTP: metabolite dTTP; for dihydroorotate: metabolite dihydroorotate; for orotate: metabolite orotate; for DLH: peptide DLH; for DLS/SDL/SID: peptide DLS/SDL/SID; for PD: peptide PD; for PEE: peptide PEE; for PVNF: peptide PVNF; for 3-phosphoglycerate: metabolite 3-phosphoglycerate; for ADP-D-glucose: metabolite ADP-D-glucose; for ATP: metabolite ATP; for CDP: metabolite CDP; for CDP / D-sedoheptulose-1/7-phosphate / GMP / Octoluse Bisphosphate / UDP / UMP / UTP / citrate/isocitrate / dGMP/AMP / fumarate / glucose-1/6-phosphate / glycerate / guanine / guanosine / inosine / pyruvate / sarcosine/alanine / succinate/methylmalonic acid / uridine / xanthosine: change in metabolite level after compound treatment; for D-sedoheptulose-1/7-phosphate: metabolite D-sedoheptulose-1/7-phosphate; for FAD: metabolite FAD; for GMP: metabolite GMP; for NAD+: metabolite NAD+; for NADP+: metabolite NADP+; for Octoluse Bisphosphate: metabolite Octoluse Bisphosphate; for Pyroglutamic acid: metabolite Pyroglutamic acid; for UDP-D-glucose: metabolite UDP-D-glucose; for UDP-D-glucuronate: metabolite UDP-D-glucuronate; for UDP-N-acetyl-glucosamine: metabolite UDP-N-acetyl-glucosamine; for UDP: metabolite UDP; for UMP: metabolite UMP; for UTP: metabolite UTP; for a-ketoglutarate: metabolite a-ketoglutarate; for citrate/isocitrate: metabolite citrate/isocitrate; for cytidine: metabolite cytidine; for dATP: metabolite dATP; for dGMP/AMP: metabolite dGMP/AMP; for fumarate: metabolite fumarate; for glucose-1/6-phosphate: metabolite glucose-1/6-phosphate; for glycerate: metabolite glycerate; for guanine: metabolite guanine; for guanosine: metabolite guanosine; for hypoxanthine: metabolite hypoxanthine; for indole: metabolite indole; for inosine: metabolite inosine; for 2_3-Diphosphoglyceric acid / 4-phosphopantothenate / 6-phospho-D-gluconate / FMN / IMP / Pyrophosphate / Sedoheptoluse bisphosphate / cyclic-AMP / glutathione disulfide / lactate / myo-inositol: metabolite level change after treatment; for nicotinate: metabolite nicotinate; for ornithine: metabolite ornithine; for phosphoenolpyruvate: metabolite phosphoenolpyruvate; for pyruvate: metabolite pyruvate; for ribose-phosphate: metabolite ribose-phosphate; for sarcosine/alanine: metabolite sarcosine/alanine; for sn-glycerol-3-phosphate: metabolite sn-glycerol-3-phosphate; for succinate/methylmalonic acid: metabolite succinate/methylmalonic acid; for uridine: metabolite uridine; for xanthosine: metabolite xanthosine
[7] = system: P. falciparum NF54 gametocytes stage IV/V; experiment: Gametocyte PrestoBlue resazurin assay Mancama; format: cell-based; details: reference control
[8] = system: P. falciparum Dd2; experiment: Malaria Sybr Green I Fluorescence assay Dd2 Horrocks; format: cell-based; details: Plasmodium falciparum, DD2, 48 h; read-out: P. falciparum Dd2 asexual blood stage EC50 Horrocks
Method: Column S: Horrocks group (data presented first in this paper). Asexual Dd2 inhibition of growth (IC50s): IC50 for the Dd2 clone of Plasmodium falciparum were determined using the Malaria Sybr Green I Fluorescence assay. Drug assays were initiated using a 2% trophozoite stage parasitaemia and 2% hematocrit and fluorescence measured after 48 h as fully described in Hasenkamp et al.[53]. Log dose-response curves were plotted in GraphPad Prism (v5.0). The controls for Dd2 using our 48hr Sybr Green I assay were (rounded to nearest nM): Chloroquine 209nM, Mefloquine 11nM, Quinine 246nM, Dihydroartemisinin 4nM, Artemether 10nM, Atovaquone 3nM.

[9] = system: P. falciparum NF54Pfs16 gametocytes stage IV-V; details: ref [62]; read-out: gametocyte late stage (IV-V) luciferase EC50; cited from earlier work
[10] = system: P. falciparum NF54 GFP-Pfs16 gametocytes stage I-III; details: ref [64]; read-out: gametocyte early stage (I-III) GFP-MTR EC50; cited from earlier work
[11] = system: P. falciparum NF54Pfs16 gametocytes stage I-III; details: ref [61]; read-out: gametocyte early stage (I-III) luciferase EC50; cited from earlier work
[12] = system: P. falciparum NF54 GFP-Pfs16 gametocytes stage IV-V; details: ref [64]; read-out: gametocyte late stage (IV-V) GFP-MTR EC50; cited from earlier work

Chain of PfPMT (Q8IDQ9 whole entry): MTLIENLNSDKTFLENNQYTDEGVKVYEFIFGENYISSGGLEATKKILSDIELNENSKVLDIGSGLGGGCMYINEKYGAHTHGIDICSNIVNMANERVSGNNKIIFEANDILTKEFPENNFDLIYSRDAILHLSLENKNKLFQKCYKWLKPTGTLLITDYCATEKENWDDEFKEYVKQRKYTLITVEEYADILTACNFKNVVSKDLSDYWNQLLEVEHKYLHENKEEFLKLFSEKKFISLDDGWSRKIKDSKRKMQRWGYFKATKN

CN1CCN(c2ccc(Nc3c4ccccc4nc4ccccc34)cc2)CC1 [MMV006172]
EC50 [1]: 142 nM | EC50 [2]: 450 nM | IC50 [3]: < 350 nM | candidate inhibitors of PfPMT activity (yeast functional assay) [4]: candidate inhibitors of PfPMT activity | fold change (IC50reduced/IC50normal) [5]: 2.7 | IC50 ([5]; 3D7, read-out: P. falciparum 3D7 IC50 HCO3- (2g/L), standard media): 98 nM | IC50 ([5]; 3D7, HCO3- reduced media, read-out: P. falciparum 3D7 IC50 HCO3- reduced): 269 nM | Acetyllysine [6]: 0.6429 | N-acetyl-L-ornithine [6]: -0.2511 | N-carbamoyl-L-aspartate [6]: 0.8815 | NADPH [6]: 2.534 | dAMP [6]: 1.267 | dCMP [6]: -0.3053 | dTDP [6]: 0.7092 | dTMP [6]: 0.8691 | dTTP [6]: -0.715 | dihydroorotate [6]: 1.4632 | orotate [6]: 0.5213 | DLH [6]: -4.586 | DLS/SDL/SID [6]: -3.823 | PD [6]: -0.4464 | PEE [6]: -0.6694 | PVNF [6]: -3.7 | 3-phosphoglycerate [6]: -0.655 | ADP-D-glucose [6]: -0.09693 | ATP [6]: -0.7842 | CDP [6]: 1.006 | D-sedoheptulose-1/7-phosphate [6]: 0.2573 | FAD [6]: 0.1782 | GMP [6]: -0.3671 | NAD+ [6]: 0.5266 | NADP+ [6]: -0.7002 | Octoluse Bisphosphate [6]: -0.1204 | Pyroglutamic acid [6]: -0.2696 | UDP-D-glucose [6]: 0.05631 | UDP-D-glucuronate [6]: -0.2935 | UDP-N-acetyl-glucosamine [6]: 0.1613 | UDP [6]: 0.649 | UMP [6]: 0.2218 | UTP [6]: -0.6427 | a-ketoglutarate [6]: -0.4073 | citrate/isocitrate [6]: -0.6633 | cytidine [6]: 0.3233 | dATP [6]: -0.3558 | dGMP/AMP [6]: 1.003 | fumarate [6]: 0.7684 | glucose-1/6-phosphate [6]: 0.09231 | glycerate [6]: 0.7592 | guanine [6]: 0.5811 | guanosine [6]: 0.453 | hypoxanthine [6]: -0.3137 | indole [6]: -0.03187 | inosine [6]: -0.01435 | 2_3-Diphosphoglyceric acid [6]: -0.3266 | 4-phosphopantothenate [6]: 0.2237 | 6-phospho-D-gluconate [6]: -0.02611 | FMN [6]: -0.396 | IMP [6]: 0.3236 | Pyrophosphate [6]: -0.313 | Sedoheptoluse bisphosphate [6]: 0.4531 | cyclic-AMP [6]: -0.3476 | glutathione disulfide [6]: -0.09654 | lactate [6]: -0.002939 | myo-inositol [6]: 0.6827 | nicotinate [6]: -0.01109 | ornithine [6]: 0.1416 | phosphoenolpyruvate [6]: -0.5207 | pyruvate [6]: -0.2034 | ribose-phosphate [6]: -0.6476 | sarcosine/alanine [6]: -0.2856 | sn-glycerol-3-phosphate [6]: -0.6027 | succinate/methylmalonic acid [6]: -0.3004 | uridine [6]: -0.07558 | xanthosine [6]: -1.8392

C[C@H]1[C@@H](O)O[C@@H]2O[C@@]3(C)CC[C@H]4[C@H](C)CC[C@@H]1[C@@]24OO3 [Dihydroartemisinin, reference compound]
DHA inhibition of stage IV/V gametocytes [7]: 84% | EC50 [8]: 4 nM

CN(C)c1ccc2nc3ccc(=[N+](C)C)cc-3sc2c1 [methylene blue, reference compound]
EC50 [9]: 38 nM | EC50 [10]: 280 nM | EC50 [11]: 30 nM | EC50 [12]: 287 nM

CCN(CC)CCn1c(=N)n(CC(O)c2ccc(Cl)c(Cl)c2)c2ccccc21 (stereo not drawn) [MMV000248]
IC50 [3]: < 350 nM

Cc1cc(NCCN2CCCCC2)c2ccc3ccccc3c2n1 [MMV006203]
EC50 [1]: 300 nM | EC50 [2]: 420 nM | fold change (IC50normal/ IC50hypoxia) [5]: 3.7 | IC50 ([5]; 3D7, read-out: P. falciparum 3D7 IC50 1% O2, 1% O2 hypoxia): 132 nM | IC50 ([5]; 3D7, read-out: P. falciparum 3D7 IC50 5% O2): 489 nM | Acetyllysine [6]: 0.08786 | N-acetyl-L-ornithine [6]: 0.002896 | N-carbamoyl-L-aspartate [6]: 0.4112 | NADPH [6]: 0.03038 | dAMP [6]: 0.7397 | dCMP [6]: 0.2991 | dTDP [6]: 0.8216 | dTMP [6]: 0.8444 | dTTP [6]: 0.2113 | dihydroorotate [6]: 0.4914 | orotate [6]: 0.1057 | DLH [6]: -0.3111 | DLS/SDL/SID [6]: -0.5497 | PD [6]: -0.2642 | PEE [6]: -0.1431 | PVNF [6]: -0.3001 | 3-phosphoglycerate [6]: -0.2573 | ADP-D-glucose [6]: 0.2156 | ATP [6]: -0.6838 | CDP [6]: 0.8402 | D-sedoheptulose-1/7-phosphate [6]: 0.9147 | FAD [6]: 0.06173 | GMP [6]: -0.5622 | NAD+ [6]: -0.01124 | NADP+ [6]: 0.01586 | Octoluse Bisphosphate [6]: -0.09172 | Pyroglutamic acid [6]: -0.7767 | UDP-D-glucose [6]: 0.04255 | UDP-D-glucuronate [6]: -0.09689 | UDP-N-acetyl-glucosamine [6]: 0.1138 | UDP [6]: 0.8936 | UMP [6]: -0.4956 | UTP [6]: -0.4083 | a-ketoglutarate [6]: -0.4253 | citrate/isocitrate [6]: -0.3127 | cytidine [6]: -0.1848 | dATP [6]: -0.6172 | dGMP/AMP [6]: 0.6443 | fumarate [6]: -0.3628 | glucose-1/6-phosphate [6]: 0.2347 | glycerate [6]: -0.4315 | guanine [6]: 0.07764 | guanosine [6]: -0.09005 | hypoxanthine [6]: -0.3483 | indole [6]: -0.1837 | inosine [6]: -0.08456 | 2_3-Diphosphoglyceric acid [6]: 0.4386 | 4-phosphopantothenate [6]: 0.2283 | 6-phospho-D-gluconate [6]: 0.1112 | FMN [6]: 0.1526 | IMP [6]: 0.332 | Pyrophosphate [6]: 0.424 | Sedoheptoluse bisphosphate [6]: -0.2408 | cyclic-AMP [6]: -0.2974 | glutathione disulfide [6]: 0.042 | lactate [6]: -0.2642 | myo-inositol [6]: -0.268 | nicotinate [6]: -0.1416 | ornithine [6]: -0.3267 | phosphoenolpyruvate [6]: -0.2017 | pyruvate [6]: -0.1834 | ribose-phosphate [6]: -0.417 | sarcosine/alanine [6]: 0.1849 | sn-glycerol-3-phosphate [6]: -0.1322 | succinate/methylmalonic acid [6]: -0.1409 | uridine [6]: -0.04629 | xanthosine [6]: -0.705
